pIC50: −log10 of the molar value. Activity calls are given as the source filed them. No cut-off for these calls is given here.
Assays:
[1] = tested on: RAW264.7; experiment: Inhibition of LPS-induced NO production in mouse RAW264.7 cells incubated for 18 hrs by Griess reagent based assay; assay type: functional, cell-based; conditions: RAW264.7, 18 h
[2] = tested on: SW480; experiment: Cytotoxicity against human SW480 cells assessed as reduction in cell viability; assay type: functional, cell-based
[3] = tested on: Staphylococcus aureus; experiment: Antibacterial activity against Staphylococcus aureus assessed as inhibition of growth at 100 uM after 24 hrs; assay type: functional, organism-based
[4] = tested on: SMMC-7721; experiment: Cytotoxicity against human SMMC-7721 cells assessed as reduction in cell viability; assay type: functional, cell-based
[5] = Cytotoxicity against human multidrug-resistant A549/Taxol cells assessed as reduction in cell viability; assay type: functional, cell-based
[6] = tested on: HL-60; experiment: Cytotoxicity against human HL-60 cells assessed as reduction in cell viability; assay type: functional, cell-based
[7] = tested on: MCF7; experiment: Cytotoxicity against human MCF7 cells assessed as reduction in cell viability; assay type: functional, cell-based
[8] = tested on: Candida albicans; experiment: Antifungal activity against fluconazole resistant Candida albicans kzs01 assessed as inhibition of growth at 100 uM after 24 hrs; assay type: functional, organism-based
[9] = tested on: A549; experiment: Cytotoxicity against human A549 cells assessed as reduction in cell viability; assay type: functional, cell-based

SMILES	pIC50 [1]	pIC50 [2]	inhibition [3]	pIC50 [4]	pIC50 [5]	pIC50 [6]	pIC50 [7]	inhibition [8]	pIC50 [9]
CNC(=N)NCCC[C@H](N)C(=O)O [TILARGININE ACETATE]	4.33	–	–	–	–	–	–	–	–
COC[C@@H]1C(=O)[C@@]23[C@H]4OC5O[C@@]2(O)[C@@H](O)[C@@H]2C(C)(C)CCC[C@]52[C@@H]3[C@@H](OC(C)=O)C[C@@H]14	–	< 5.00	inactive	< 5.00	< 5.00	< 5.00	< 5.00	inactive	< 5.00
COC[C@@]1(C[C@H]2C(=O)[C@@]34[C@H]5OC6O[C@@]3(O)[C@@H](O)[C@@H]3C(C)(C)CCC[C@]63[C@@H]4[C@@H](OC(C)=O)C[C@@H]25)C(=O)[C@]23[C@H](O)[C@@]4(O)OC5O[C@H]2[C@H]1C[C@H](OC(C)=O)[C@H]3[C@@]51CCCC(C)(C)[C@@H]41 (stereo partly drawn)	4.37	< 5.00	inactive	< 5.00	< 5.00	< 5.00	< 5.00	inactive	< 5.00
COC[C@H]1C(=O)[C@@]23[C@H]4OC5O[C@@]2(O)[C@@H](O)[C@@H]2C(C)(C)CCC[C@]52[C@@H]3[C@@H](OC(C)=O)C[C@@H]14	4.53	< 5.00	inactive	< 5.00	< 5.00	< 5.00	< 5.00	inactive	< 5.00
CC(=O)O[C@H]1C[C@@H]2[C@@H]3OC4O[C@@]5(O)[C@@H](O)[C@@H]6C(C)(C)CCC[C@]46[C@H]1[C@]35C(=O)[C@]21CO1	–	< 5.00	inactive	< 5.00	< 5.00	< 5.00	< 5.00	inactive	< 5.00
COC(=O)CCCCCC/C=C(/C=O)C[C@H]1C(=O)[C@@]23[C@H]4OC5O[C@@]2(O)[C@@H](O)[C@@H]2C(C)(C)CCC[C@]52[C@@H]3[C@@H](OC(C)=O)C[C@@H]14	–	< 5.00	inactive	< 5.00	< 5.00	< 5.00	< 5.00	inactive	< 5.00
COC[C@@H]1C(=O)[C@]23[C@H](O)[C@H]1CC[C@H]2C12CCCC(C)(C)[C@H]1C(=O)[C@]3(O)[C@@H]2O	–	< 5.00	inactive	< 5.00	< 5.00	< 5.00	< 5.00	inactive	< 5.00
COC[C@@]1(C[C@H]2C(=O)[C@@]34[C@H]5OC6O[C@@]3(O)[C@@H](O)[C@@H]3C(C)(C)CCC[C@]63[C@@H]4CC[C@@H]25)C(=O)[C@@]23[C@H]4OC5O[C@@]2(O)[C@@H](O)[C@@H]2C(C)(C)CCC[C@]52[C@@H]3[C@@H](OC(C)=O)C[C@H]41	4.95	< 5.00	inactive	< 5.00	< 5.00	< 5.00	< 5.00	inactive	< 5.00
CC(=O)O[C@H]1C[C@@H]2[C@@H]3OC4O[C@@]5(O)[C@@H](O)[C@@H]6C(C)(C)CCC[C@]46[C@H]1[C@]35C(=O)[C@]21CCC2=C(O1)[C@@]13[C@H]4OC5O[C@@]1(O)[C@@H](O)[C@@H]1C(C)(C)CCC[C@]51[C@@H]3CC[C@@H]24	–	< 5.00	inactive	< 5.00	< 5.00	< 5.00	< 5.00	inactive	< 5.00

Reference: ChEMBL document CHEMBL4673369, “ent-Kaurane-Based Diterpenoids, Dimers, and Meroditerpenoids from Isodon xerophilus” (J Nat Prod, 2020)
